Target: T1, PCSK9 protein (Homo sapiens, UniProt Q8NBP7)
T1 construct: purchased Sino biology (Sino Biological) 29698-H08H
Test: Binding ability to PCSK9 protein (HTRF)
Conditions: PCSK9-His, Alexa Fluor 647 probe compound
Experimental: 1. Experimental objective: To detect the action of compounds to bind PCSK9 protein by an HTRF method.
3. Experimental data processing method: Four-parameter log(inhibitor) vs. response—Variable slope (four parameters) in XLit was used to perform non-linear fitting of the compound concentration and the corresponding inhibition rate, and IC50 was calculated.

T1 sequence (Q8NBP7 153-692): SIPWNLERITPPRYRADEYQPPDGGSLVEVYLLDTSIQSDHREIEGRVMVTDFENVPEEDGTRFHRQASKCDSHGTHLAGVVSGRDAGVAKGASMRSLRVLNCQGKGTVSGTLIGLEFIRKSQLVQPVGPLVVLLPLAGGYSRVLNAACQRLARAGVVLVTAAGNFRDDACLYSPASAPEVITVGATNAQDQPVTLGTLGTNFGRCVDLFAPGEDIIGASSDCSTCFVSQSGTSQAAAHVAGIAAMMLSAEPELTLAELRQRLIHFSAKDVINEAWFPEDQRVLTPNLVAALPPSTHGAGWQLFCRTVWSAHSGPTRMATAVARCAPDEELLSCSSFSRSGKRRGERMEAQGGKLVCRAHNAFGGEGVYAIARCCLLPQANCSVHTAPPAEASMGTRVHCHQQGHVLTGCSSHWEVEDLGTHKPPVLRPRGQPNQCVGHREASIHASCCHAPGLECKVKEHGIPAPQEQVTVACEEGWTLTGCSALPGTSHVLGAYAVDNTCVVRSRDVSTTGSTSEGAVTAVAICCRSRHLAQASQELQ

Row | Compound | IC50
1 | O=c1ccncn1-c1ccc(N[C@H]2CC[C@H](Nc3nc4cc(F)ccn4n3)C2)nc1 [Example 28, 3-(6-(((1S,3S)-3-((7-fluoro-[1,2,4]triazolo[1,5-a]pyridin-2-yl)amino)cyclopentyl)amino)pyridin-3-yl)pyrimidin-4(3H)-one] | 17.4 nM
2 | O=c1cnccn1-c1ccc(N[C@H]2CC[C@H](Nc3nc4cc(F)ccn4n3)C2)nc1 [Example 29, 1-(6-(((1S,3S)-3-((7-fluoro-[1,2,4]triazolo[1,5-a]pyridin-2-yl)amino)cyclopentyl)amino)pyridin-3-yl)pyrazin-2(1H)-one] | 18.4 nM
3 | O=C1COCCN1c1ccc(N[C@H]2CC[C@H](Nc3nc4cc(F)ccn4n3)C2)nc1 [Example 53, 4-(6-(((1S,3S)-3-((7-fluoro-[1,2,4]triazolo[1,5-a]pyridin-2-yl)amino)cyclopentyl)amino)pyridin-3-yl)morpholin-3-one] | 43.6 nM
4 | O=C1c2ncc(F)cc2CN1c1ccc(N[C@H]2CC[C@H](Nc3nc4cc(OC(F)F)ccn4n3)C2)nc1 [Example 98] | 6.6 nM
5 | O=c1nc(O)ccn1-c1ccc(N[C@H]2CC[C@H](Nc3nc4cc(F)ccn4n3)C2)nc1 [Example 102] | 13.3 nM
6 | O=c1nc(O)ccn1-c1ccc(N[C@H]2CC[C@H](Nc3nc4cc(C(F)F)ccn4n3)C2)nc1 [Example 104] | 13.9 nM
7 | O=c1nc(O)ccn1-c1ccc(N[C@H]2CC[C@H](Nc3nc4cc(OC(F)F)ccn4n3)C2)nc1 [Example 105] | 9.1 nM
8 | Cc1ccn2nc(N[C@H]3CC[C@H](Nc4ccc(-n5ccc(O)nc5=O)cn4)C3)nc2c1 [Example 106] | 10.6 nM
9 | O=c1nc(O)ccn1-c1ccc(N[C@H]2CC[C@H](Nc3nc4cc(C5CC5)ccn4n3)C2)nc1 [Example 107] | 21.3 nM
10 | O=c1nc(O)c(C(F)(F)F)cn1-c1ccc(N[C@H]2CC[C@H](Nc3nc4cc(C(F)(F)F)ccn4n3)C2)nc1 [Example 119] | 23 nM
11 | Cc1cnc2c(c1)C(=O)N(c1ccc(N[C@H]3CC[C@H](Nc4nc5cc(OC(F)F)ccn5n4)C3)nc1)C2 [Example 128] | 8.5 nM
12 | Cc1ccc2c(n1)CN(c1ccc(N[C@H]3CC[C@H](Nc4nc5cc(OC(F)F)ccn5n4)C3)nc1)C2=O [Example 131] | 6.7 nM
13 | O=C1c2c(F)ccnc2CN1c1ccc(N[C@H]2CC[C@H](Nc3nc4cc(OC(F)F)ccn4n3)C2)nc1 [Example 135] | 5.4 nM
14 | N#Cc1cnc2c(c1)C(=O)N(c1ccc(N[C@H]3CC[C@H](Nc4nc5cc(F)ccn5n4)C3)nc1)C2 [Example 137] | 15.9 nM
15 | O=C1c2ccc(O)nc2CN1c1ccc(N[C@H]2CC[C@H](Nc3nc4cc(OC(F)F)ccn4n3)C2)nc1 [Example 138] | 8.8 nM
16 | O=C1c2nc(O)ccc2CN1c1ccc(N[C@H]2CC[C@H](Nc3nc4cc(C(F)(F)F)ccn4n3)C2)nc1 [Example 139] | 36.3 nM
17 | Cc1cc(N[C@H]2CC[C@H](Nc3nc4cc(C(F)(F)F)ccn4n3)C2)ncc1N1Cc2nc(O)ccc2C1=O [Example 144] | 15.6 nM
18 | O=C1c2cccnc2CN1c1cnc(N[C@H]2CC[C@H](Nc3nc4cc(OC(F)F)ccn4n3)C2)c(F)c1 [Example 152] | 6.7 nM

Row | Compound | IC50
19 | O=C1c2cc(F)cnc2CN1c1cnc(N[C@H]2CC[C@H](Nc3nc4cc(OC(F)F)ccn4n3)C2)c(F)c1 [Example 158] | 16 nM
20 | Cc1cc2c(cn1)CN(c1cnc(N[C@H]3CC[C@H](Nc4nc5cc(OC(F)F)ccn5n4)C3)c(F)c1)C2=O [Example 160] | 7.7 nM
21 | O=C1c2ncccc2CN1c1cnc(N[C@H]2CC[C@H](Nc3nc4cc(C5CC5)ccn4n3)C2)c(F)c1 [Example 166] | 7.9 nM
22 | CC(C)(O)c1ccn2nc(N[C@H]3CC[C@H](Nc4ncc(N5Cc6cccnc6C5=O)cc4F)C3)nc2c1 [Example 168] | 10.6 nM
23 | COc1cc(N2Cc3cccnc3C2=O)cnc1N[C@H]1CC[C@H](Nc2nc3cc(C(F)(F)F)ccn3n2)C1 [Example 170] | 13.3 nM
24 | Cc1nc(N[C@H]2CC[C@H](Nc3nc4cc(C(F)(F)F)ccn4n3)C2)ccc1N1Cc2cccnc2C1=O [Example 176] | 9.08 nM
25 | CC(C)(O)c1cccn(-c2cnc(N[C@H]3CC[C@H](Nc4nc5cc(C(F)(F)F)ccn5n4)C3)c(F)c2)c1=O [Example 182] | 29.3 nM
26 | Cc1cc2c(cn1)CN(c1cnc(N[C@H]3CC[C@H](Nc4nc5cc(F)ccn5n4)C3)c(F)c1)C2=O [Example 190] | 8.5 nM
27 | O=c1[nH]cc(-c2cnc(N[C@H]3CC[C@H](Nc4nc5cc(C(F)(F)F)ccn5n4)C3)c(F)c2)c(=O)[nH]1 [Example 195] | 9.6 nM
28 | CC(C)(O)c1cnc2c(c1)CN(c1cnc(N[C@H]3CC[C@H](Nc4nc5cc(F)ccn5n4)C3)c(F)c1)C2=O [Example 196] | 8.7 nM
29 | CC(C)(O)c1ccnc2c1CN(c1cnc(N[C@H]3CC[C@H](Nc4nc5cc(F)ccn5n4)C3)c(F)c1)C2=O [Example 197] | 7.5 nM
30 | O=C1c2nccn2CCN1c1cnc(N[C@H]2CC[C@H](Nc3nc4cc(C(F)(F)F)ccn4n3)C2)c(F)c1 [Example 213] | 9.5 nM
31 | Cc1ccn2nc(N[C@H]3CC[C@H](Nc4ncc(N5Cc6ncccc6C5=O)cc4F)C3)nc2c1 [Example 223] | 7.2 nM
32 | Cc1ccn2nc(N[C@H]3CC[C@H](Nc4ncc(-n5ccccc5=O)cc4F)C3)nc2c1 [Example 224] | 8.5 nM
33 | Cc1ccn2nc(N[C@H]3CC[C@H](Nc4ncc(-n5ccc(O)nc5=O)cc4F)C3)nc2c1 [Example 225] | 8.6 nM
34 | Cc1ccn2nc(N[C@H]3CC[C@H](Nc4ncc(N5CCn6nccc6C5=O)cc4F)C3)nc2c1 [Example 226] | 7.1 nM
35 | Cc1nc(N[C@H]2CC[C@H](Nc3nc4cc(C(F)(F)F)ccn4n3)C2)c(F)cc1N1CCn2nccc2C1=O [Example 238] | 8 nM

Tested on: not listed separately
Test: Pharmacokinetic determination in mice (PO 5 mg/kg, IV 1 mg/kg)
Assay type: in vivo, C57BL/6J mice
Conditions: male, C57BL/6J, mouse, plasma, C57 mice, PO administration, 5 mpk, read-out: Area under the curve AUC0-∞
Experimental: 1. Experimental objective: C57BL/6J mice were used as test animals to study the pharmacokinetic behavior of the compounds of the present disclosure in mice (plasma) after oral and intravenous administration.
2.2 Test animals: C57 mice, male, purchased from Shanghai Bk Lab Animal Co., Ltd., with animal production license number (SCXK (Shanghai) 2013-0006 N0.311620400001794).
2.3 Drug preparation: Preparation of oral drug: 10% Solutol HS15
10 g of Solutol HS15 solid was weighed, dissolved in 90 mL of pure water, uniformly mixed, stirred, and ultrasonically treated to form a clear solution. The compound of the present disclosure was weighed and dissolved in this solution, uniformly shaken, and ultrasonically treated for 15 minutes to obtain a colorless clear solution with a concentration of 0.5 mg/mL. Preparation of intravenous drug: 5% DMSO+10% Solutol HS15+85% PBS, the compound of the present disclosure was weighed, 5% DMSO was first added on the basis of the proportion relative to the total volume of administration, and the mixture was vortexed and ultrasonically treated for 2 min until it was completely dissolved; 10% of Solutol HS15 was then added, and the mixture was vortexed and ultrasonically treated for 2 min until it was completely dissolved; and finally, 85% of PBS was added, and the mixture was vortexed, ultrasonically treated for 5 min, and filtered through a 0.22 um filter membrane to obtain a colorless and transparent clear solution with a concentration of 0.2 mg/mL.
2.4 Administration: 3 male C57 mice were fasted overnight and then respectively administered PO at a dose of 5 mg/kg and a volume of 10 mL/kg. 3 male C57 mice were fasted overnight and then respectively administered IV at a dose of 1 mg/kg and a volume of 5 mL/kg.
2.5 Sample collection: Before and after administration of mice, 0.04 mL of blood was collected from the orbit at 0.083 (iv), 0.25, 0.5, 1, 2, 4, 8, and 24 hours, and placed in EDTA-K2 test tubes, which was centrifuged at 6000 rpm at 4° C. for 6 min to separate plasma which was stored at −80° C.; and the […] were fed 4 h after administration.
2.6 Determination results: The final determination results were obtained by using an LCMS/MS method.
3. Experimental results: The main pharmacokinetic parameters were calculated using WinNonlin 6.1.

Row | Compound | AUC(0-inf)
36 | Cc1ccc2c(n1)CN(c1ccc(N[C@H]3CC[C@H](Nc4nc5cc(OC(F)F)ccn5n4)C3)nc1)C2=O [Example 131] | 22400 ng·h/mL

Same assay, conditions: male, C57BL/6J, mouse, plasma, C57 mice, PO administration, 5 mpk, read-out: Half-life t1/2 (converted)

Row | Compound | half-life
37 | Cc1ccc2c(n1)CN(c1ccc(N[C@H]3CC[C@H](Nc4nc5cc(OC(F)F)ccn5n4)C3)nc1)C2=O [Example 131] | 3.4 h

Same assay, conditions: male, C57BL/6J, mouse, plasma, C57 mice, PO administration, 5 mpk, read-out: Mean residence time MRT

Row | Compound | MRT
38 | Cc1ccc2c(n1)CN(c1ccc(N[C@H]3CC[C@H](Nc4nc5cc(OC(F)F)ccn5n4)C3)nc1)C2=O [Example 131] | 2.7 h

Same assay, conditions: male, C57BL/6J, mouse, plasma, C57 mice, PO administration, 5 mpk, read-out: Plasma concentration Cmax

Row | Compound | Cmax
39 | Cc1ccc2c(n1)CN(c1ccc(N[C@H]3CC[C@H](Nc4nc5cc(OC(F)F)ccn5n4)C3)nc1)C2=O [Example 131] | 7170 ng/mL

Same assay, conditions: male, C57BL/6J, mouse, plasma, C57 mice, PO administration, 5 mpk, read-out: Time to peak tmax

Row | Compound | Tmax
40 | Cc1ccc2c(n1)CN(c1ccc(N[C@H]3CC[C@H](Nc4nc5cc(OC(F)F)ccn5n4)C3)nc1)C2=O [Example 131] | 0.5 h
